Experimental data taken from patent publication US20180106782A1, “HIGH THROUGHPUT CARDIOTOXICITY SCREENING PLATFORM” (The Board of Trustees of the Leland Stanford Junior …, priority 2016, published 2018).

System: μpatterned hiPSC-CMs
Experiment: sarcomere length (sl) and sarcomere shortening (ss) from videos of labeled myofibrils
Type: cell-based, human
Settings: for average values of sl (sarcomere length): single cell with labeled myofibrils (FIG. 7A, 7E)
Method: We analyzed videos of beating patterned hiPSC-CMs with LifeAct-labeled myofibrils (Ribeiro 2015a) to quantify the organization and dynamics of sarcomeres along myofibrils. Sarcomere shortening and movement during the contractile cycle was determined from analyzing how the size of all labeled sarcomeres in a single hiPSC-CM varies during each of its contractile cycles. The minimal length that separates two proximal Z-lines defines sarcomere size. LifeAct labels actin between Z-lines, which correspond to dark lines in LifeAct-labeled myofibrils. (Ribeiro 2015a) Therefore, the minimal distance between adjacent dark lines in LifeAct-labeled myofibrils defines sarcomere size. We used four different approaches to quantify sarcomere size along LifeAct-labeled myofibrils from frames of single beating hiPSC-CMs (FIG. 12) and used the second approach for performing better when analyzing videos with minimal user intervention.
The second approach (FIG. 12B) is a novel method that we developed to determine sarcomere lengths in each frame without the need of curve-fitting procedures or radial Fourier transforms. The approach consists of automatically measuring the length of the segment between adjacent Z-lines that is parallel to the direction of myofibril alignment (FIG. 15). The algorithm for this approach measured the length from Z-line i to Z-line i+1 using information on myofibril orientation in the region around Z-line i and Z-line i+1 and considering a skeleton of sarcomeres generated as previously detailed for the first approach. The algorithm developed first a map of all points that compose the sarcomere skeleton and each point was taken once as a starting location of a path along the direction of myofibril orientation that stopped when another Z-line in the skeleton was reached (FIG. 15). The length between adjacent Z-lines was therefore defined as the Euclidean distance between start and end points calculated with this method (FIG. 15). The path was calculated pixel by pixel within the skeletonized image. For each new pixel of the path, the algorithm evaluated what the other pixel of the path was based on the local orientation of the myofibril. For pixels that were starting points or pixels already in a path, the local orientation angle of myofibrils was taken as the deciding factor to determine the next path pixel. In the algorithm, we particularly defined that the y direction of the path could be chosen freely, but only pixels in the +x direction could be candidates for the next element of the path (FIG. 15). This definition derived from the fact that every point composing the skeleton was considered as a starting point and because orientations of myofibrils are in the [0,Th] range. In relation to a known point of a path, the next neighboring pixel to be included as the next element of that path could be the pixel on the right, on the top, on the bottom, on the top right or on the bottom right (FIG. 15-B). Given this condition, a 10° angle or a 0° angle of known myofibril orientation lead to the same decision for the next pixel to include in the path: the pixel on the right. We estimated the local orientation of myofibrils through the MATLAB-written code RIDGEORIENT. (Kovesi 2000) This tool indicates the principle ridge direction through local gradient variations. By definition, the gradient is […] to the main orientation. (Krause 2009)
The global orientation of a myofibril between Z-lines was also taken in consideration for deciding the next pixel in the path between Z-lines (FIG. 15) because small angles can add up during the extending of the line defined by the path and better reveal the real myofibril orientation. For example, starting at a pixel on a Z-line (x1, y1) with a local orientation angle θ1=10°, the next pixel would have to be (x1+1, y1). If θ2=10°, the next pixel would again be to the right, adding (x1+2, y1) to the path. […]

SMILES | minimal average sl (0.1 μM isoproterenol) | ss (sarcomere shortening) (0.1 μM isoproterenol (FIG. 7D)) | minimal average sl (1 μM isoproterenol) | increase of ss (sarcomere shortening) (1 μM isoproterenol (FIG. 7D)) | maximal mean values of sl (1 μM isoproterenol, relative to before adding (FIG. 7B)) | average values of sl (sarcomere length) | maximal average sl (chronic and acute effects of omecamtiv mecarbil (FIG. 7F)) | minimum average sl (chronic and acute effects of omecamtiv mecarbil (FIG. 7G)) | average ss (chronic and acute effects of omecamtiv mecarbil (FIG. 7H))
CC(C)NCC(O)c1ccc(O)c(O)c1 (stereo not shown) [isoproterenol] | decreased | considerably increased | decrease even more | not with 1 μM | decreased | decreased | – | – | –
COC(=O)N1CCN(Cc2cccc(NC(=O)Nc3ccc(C)nc3)c2F)CC1 [omecamtiv mecarbil] | – | – | – | – | – | decreased | decrease | decrease | decrease
